≈ marks a conversion by molar mass, not a printed value. Where “and” joins values, the source holds several entries; their conditions need not be identical. Identical values can stand only once.
Assays:
[1] = Single i.v. dose toxicity: coagulation (aPTT, PT); format: in vivo, Sprague-Dawley rats; details: for ACTIVE PARTIAL THROMBOPLASTIN TIME: Anatabine 0.1 mg/kg single i.v. dose
Text: (§1) On day 15, urine was collected on all surviving animals for urinalysis. The animals were euthanized and bled via cardiac puncture. Blood was collected for hematology, clinical chemistry, and coagulation analysis. Tissues were collected, weighed, and stored in 10% neutral-buffered formalin for possible future analysis.

nAChR α7 = target: T1, nAChR α7 (Homo sapiens, UniProt P36544); experiment: nAChR α7 channel agonist assay (FLIPR); format: cell-based; details: in presence of PNU-120596; maximal stimulation not achieved
T1 construct: host or cells: CHO cells coexpressing RIC-3
T1 sequence (P36544 23-502): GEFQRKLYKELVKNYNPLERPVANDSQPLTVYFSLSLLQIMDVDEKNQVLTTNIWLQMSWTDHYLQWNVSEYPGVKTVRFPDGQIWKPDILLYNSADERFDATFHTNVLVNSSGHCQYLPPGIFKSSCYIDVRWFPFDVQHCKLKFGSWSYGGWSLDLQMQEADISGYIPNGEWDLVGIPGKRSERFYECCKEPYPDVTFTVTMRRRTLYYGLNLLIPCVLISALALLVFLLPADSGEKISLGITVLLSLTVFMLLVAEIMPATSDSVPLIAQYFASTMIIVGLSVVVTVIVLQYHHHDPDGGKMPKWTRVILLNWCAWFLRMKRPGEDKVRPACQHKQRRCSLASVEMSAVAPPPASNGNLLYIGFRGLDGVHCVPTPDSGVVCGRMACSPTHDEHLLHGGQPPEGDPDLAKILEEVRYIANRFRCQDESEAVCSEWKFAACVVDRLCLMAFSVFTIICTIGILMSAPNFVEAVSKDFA
Method: (§2) Briefly, cells were incubated with […] dye for 30 min at 37° C.
Therefore, the assay of agonist activity for either Ach or for the test articles was conducted in the presence of the positive allosteric modulator.

[2] = Physical signs after single i.v. dose (Example 3); format: in vivo, Sprague-Dawley rats; details: rat, nicotine 0.4 mg/kg, anatabine 0.10, 0.75, 1.0 mg/kg
Method: Four aliquots of each dose level formulation were collected and stored at −80° C. The test compound, corresponding dose level, number of animals, and sample collection times for Phase I of the study are shown in Table 3. The test compound, corresponding dose level, number of animals, and sample collection times for Phase II of the study are shown in Table 4. The physical signs of each animal were monitored following administration of the test compound.

nAChR α3/β4 = nAChR α3/β4 (Homo sapiens, UniProt P30926+P32297); format: cell-based; details: with 10 μM Ach
Sequence of nAChR α3/β4 (P32297 32-505): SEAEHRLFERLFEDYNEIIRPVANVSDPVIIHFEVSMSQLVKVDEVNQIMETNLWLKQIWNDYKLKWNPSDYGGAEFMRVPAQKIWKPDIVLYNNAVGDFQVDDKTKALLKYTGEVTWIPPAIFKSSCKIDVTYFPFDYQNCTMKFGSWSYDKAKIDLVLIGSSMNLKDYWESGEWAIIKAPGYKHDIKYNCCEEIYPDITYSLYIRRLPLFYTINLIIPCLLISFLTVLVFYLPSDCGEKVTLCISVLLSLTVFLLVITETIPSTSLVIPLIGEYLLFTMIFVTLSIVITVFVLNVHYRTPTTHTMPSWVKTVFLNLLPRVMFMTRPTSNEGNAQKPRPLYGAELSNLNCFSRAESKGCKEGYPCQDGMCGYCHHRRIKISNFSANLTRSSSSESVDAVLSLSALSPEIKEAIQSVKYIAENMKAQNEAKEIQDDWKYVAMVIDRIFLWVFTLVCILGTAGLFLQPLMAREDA
Sequence of nAChR α3/β4 (P30926 22-498): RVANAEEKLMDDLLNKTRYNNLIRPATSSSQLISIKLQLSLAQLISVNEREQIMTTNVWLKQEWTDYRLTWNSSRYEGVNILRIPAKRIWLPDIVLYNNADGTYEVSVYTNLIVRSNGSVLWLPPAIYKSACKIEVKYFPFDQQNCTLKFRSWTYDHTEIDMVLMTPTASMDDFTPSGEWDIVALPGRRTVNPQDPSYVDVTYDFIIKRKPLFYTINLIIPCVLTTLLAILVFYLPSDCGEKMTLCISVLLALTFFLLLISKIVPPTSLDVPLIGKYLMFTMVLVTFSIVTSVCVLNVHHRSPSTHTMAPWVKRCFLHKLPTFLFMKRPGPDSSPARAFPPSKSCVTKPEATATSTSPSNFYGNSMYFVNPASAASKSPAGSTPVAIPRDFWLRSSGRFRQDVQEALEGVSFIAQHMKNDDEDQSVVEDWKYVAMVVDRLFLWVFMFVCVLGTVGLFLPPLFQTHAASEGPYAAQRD
Method: as §2

nAChR α4/β2 = target: T2, nAChR α4/β2 (Homo sapiens, UniProt P17787+P43681); format: cell-based; details: 100 μM Ach + 0.3 μM epibatidine; not concentration-dependent, IC50s could not be determined
T2 construct: host or cells: HEK293 cells, transient
T2 sequence (P43681 29-627): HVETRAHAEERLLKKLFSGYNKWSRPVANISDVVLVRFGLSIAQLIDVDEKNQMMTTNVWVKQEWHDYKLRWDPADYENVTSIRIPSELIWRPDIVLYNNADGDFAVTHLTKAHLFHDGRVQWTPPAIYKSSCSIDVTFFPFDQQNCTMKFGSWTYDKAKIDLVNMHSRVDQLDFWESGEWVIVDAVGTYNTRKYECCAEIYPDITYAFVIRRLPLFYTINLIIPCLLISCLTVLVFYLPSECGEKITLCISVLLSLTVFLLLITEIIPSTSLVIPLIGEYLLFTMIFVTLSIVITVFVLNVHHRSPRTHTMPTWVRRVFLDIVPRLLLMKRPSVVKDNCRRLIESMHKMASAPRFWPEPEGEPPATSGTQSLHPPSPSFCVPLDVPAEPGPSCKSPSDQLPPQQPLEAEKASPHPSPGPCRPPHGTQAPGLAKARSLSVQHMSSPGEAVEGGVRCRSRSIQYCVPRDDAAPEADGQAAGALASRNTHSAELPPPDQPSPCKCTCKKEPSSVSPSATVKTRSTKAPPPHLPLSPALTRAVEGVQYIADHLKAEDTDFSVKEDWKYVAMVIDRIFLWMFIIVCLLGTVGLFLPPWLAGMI
T2 sequence (P17787 26-502): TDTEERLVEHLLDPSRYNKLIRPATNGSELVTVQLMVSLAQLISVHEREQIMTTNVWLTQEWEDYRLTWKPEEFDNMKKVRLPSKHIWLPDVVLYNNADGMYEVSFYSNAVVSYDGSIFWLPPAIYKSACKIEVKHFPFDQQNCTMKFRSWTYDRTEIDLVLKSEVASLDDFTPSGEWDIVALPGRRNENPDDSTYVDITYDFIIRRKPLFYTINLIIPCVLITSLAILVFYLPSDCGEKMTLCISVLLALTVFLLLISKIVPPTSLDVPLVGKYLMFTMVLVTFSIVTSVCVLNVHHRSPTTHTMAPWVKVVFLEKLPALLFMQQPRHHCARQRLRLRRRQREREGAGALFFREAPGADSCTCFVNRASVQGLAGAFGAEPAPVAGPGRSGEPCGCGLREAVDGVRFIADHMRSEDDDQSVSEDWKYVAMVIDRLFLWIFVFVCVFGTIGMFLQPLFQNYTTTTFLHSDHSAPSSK
Method: as §2

[3] = Single i.v. dose toxicity: body weights and food consumption; format: in vivo, Sprague-Dawley rats; details: for Mean food consumption/day: 14 days, 0.1 mg/kg
Method: (§3) Body weight and food consumption was measured daily for 14 days. On day 15, urine was collected on all surviving animals. The animals were euthanized and bled via cardiac puncture, and blood was collected for analysis. Tissues were collected, weighed, evaluated for gross abnormalities, and stored in 10% neutral-buffered formalin.
All animals were observed daily.

[4] = Single i.v. dose toxicity: necropsy observations and organ weights; format: in vivo, Sprague-Dawley rats
Method: as §3, §1

NFκB = NFκB luciferase assay (inhibition of TNFα-induced NFκB activity); format: cell-based, Human
Method: The smokeless tobacco used in these experiments was plain long-leaf Copenhagen tobacco purchased from a local vendor. Crude extract was extracted with methanol and water and clarified by centrifugation and filtration. The alkaloid extract was prepared from sodium hydroxide and methanol extraction, organic phase separation and purification. All treatment samples were prepared as a function of weight (μg/ml), and all samples were diluted in DMSO.
Human […] kidney cells (HEK293) transfected with an NFκB luciferase reporter were challenged with TNFα for three hours, then samples were applied to the challenged cells.
The effect of S-(−)-anatabine on TNFα-induced NFκB activity in vitro was determined as described in Example 1.

[5] = Anatabine 0.1 mg/kg, F, individual rats
[6] = Anatabine 0.1 mg/kg, M, individual rats
[7] = Anatabine 0.75 mg/kg, F, individual rats
[8] = Anatabine 0.75 mg/kg, M, individual rats
[9] = single i.v. 0.1 mg/kg, male rats
[10] = Group B: Anatabine 0.1 mg/kg (Females), individual animals
[11] = Group B: Anatabine 0.1 mg/kg (Males), individual animals
[12] = Group C: Anatabine 0.75 mg/kg (Females), individual animals
[13] = Group C: Anatabine 0.75 mg/kg (Males), individual animals
[14] = female animals, Anatabine 0.1 mg/kg, n = 5
[15] = female animals, Anatabine 0.75 mg/kg, n = 5
[16] = male rats, single i.v. 0.1 mg/kg, day 15
[17] = male rats, single i.v. 0.75 mg/kg anatabine, day 15

C1=CCC(c2cccnc2)NC1 (racemic) [Anatabine, 1,2,3,6-tetrahydro-[2,3′]bipyridinyl]
ACTIVE PARTIAL THROMBOPLASTIN TIME ([1]; female rats, individual animals B6-B10): 26 s
ACTIVE PARTIAL THROMBOPLASTIN TIME ([1]; male rats, individual animals B1-B5): 32 s
aPTT and PT vs vehicle control ([1]; rat, each anatabine treatment group): no significant differences in aPTT or PT
agonist activity (nAChR α7): showed agonist activity
physical signs post dose [2]: no obvious adverse signs were observed
potentiation (nAChR α3/β4): Neither nicotine nor anatabine potentiated
inhibition (nAChR α4/β2): inhibited receptor activity
day 7 B.W. [3, 5]: 222.0 g
day 12 B.W. [3, 5]: 240.0 g
day 3 B.W. [3, 6]: 270.0 g
day 4 B.W. [3, 6]: 270.0 g
day 8 B.W. [3, 6]: 310.0 g
day 9 B.W. [3, 6]: 310.0 g
day 12 B.W. [3, 6]: 320.0 g
day 13 B.W. [3, 6]: 360 g
day 2 B.W. [3, 7]: 210.0 g
day 4 B.W. [3, 7]: 230.0 g and 220.0 g
day 8 B.W. [3, 7]: 220.0 g
day 2 B.W. [3, 8]: 240.0 g
day 8 B.W. [3, 8]: 300.0 g
day 13 B.W. [3, 8]: 330 g
Mean weight increase by day 14 ([3]; single i.v. 0.1 mg/kg, female rats): 39.0 g
Mean weight increase by day 14 [3, 9]: 132.5 g
Mean food consumption/day [3, 9]: 31.0 g
Mean food consumption/day ([3]; single i.v. 0.1 mg/kg, male rats, listed as anatabine): statistically higher
Mean weight increase by day 14 ([3]; single i.v. 0.75 mg/kg anatabine, female rats): 43.1 g
Mean weight increase by day 14 ([3]; single i.v. 0.75 mg/kg anatabine, male rats): 111.6 g
Tissue Collection Weights: Heart [4, 10]: 0.95 g
Tissue Collection Weights: Ovaries/uterus [4, 10]: 0.96 g and 0.84 g and 0.70 g
Tissue Collection Weights: Small intestine [4, 10]: 0.87 g and 0.71 g and 0.55 g and 0.49 g and 0.63 g
Tissue Collection Weights: Spleen [4, 10]: 0.79 g and 0.62 g and 0.51 g and 0.67 g and 0.65 g
Tissue Collection Weights: Thymus [4, 10]: 0.68 g and 0.59 g and 0.49 g and 0.71 g and 0.73 g
Tissue Collection Weights: Heart [4, 11]: 1.60 g
Tissue Collection Weights: Kidneys [4, 11]: 3.70 g
Tissue Collection Weights: Prostate [4, 11]: 0.72 g and 0.49 g and 0.73 g and 0.53 g and 0.48 g
Tissue Collection Weights: Small intestine [4, 11]: 0.61 g and 0.96 g and 0.88 g and 0.50 g and 0.35 g
Tissue Collection Weights: Spleen [4, 11]: 0.91 g and 0.66 g and 0.82 g and 0.93 g and 0.76 g
Tissue Collection Weights: Thymus [4, 11]: 0.74 g (2×) and 0.76 g and 0.71 g and 0.81 g
Tissue Collection Weights: Brain [4, 12]: 1.93 g
Tissue Collection Weights: Heart [4, 12]: 0.99 g
Tissue Collection Weights: Kidneys [4, 12]: 2.20 g
Tissue Collection Weights: Lungs [4, 12]: 1.30 g
Tissue Collection Weights: Ovaries/uterus [4, 12]: 0.81 g and 1.50 g and 0.72 g
Tissue Collection Weights: Small intestine [4, 12]: 0.72 g and 0.37 g and 0.85 g and 0.47 g
Tissue Collection Weights: Spleen [4, 12]: 0.70 g and 0.65 g (2×) and 0.51 g and 0.49 g
Tissue Collection Weights: Thymus [4, 12]: 0.56 g and 0.53 g and 0.63 g and 0.52 g and 0.54 g
Tissue Collection Weights: Brain [4, 13]: 2.00 g
Tissue Collection Weights: Prostate [4, 13]: 0.49 g (2×) and 0.65 g and 0.46 g and 0.45 g
Tissue Collection Weights: Small intestine [4, 13]: 0.54 g and 0.56 g and 0.41 g and 0.47 g
Tissue Collection Weights: Spleen [4, 13]: 0.71 g and 0.63 g and 0.79 g and 0.93 g and 0.64 g
Tissue Collection Weights: Testes [4, 13]: 2.70 g
Tissue Collection Weights: Thymus [4, 13]: 0.52 g and 0.67 g and 0.69 g and 0.47 g
Organ Weight Brain, Mean [4, 14]: 1.86 g
Organ Weight Heart, Mean [4, 14]: 1.13 g
Organ Weight Liver, Mean [4, 14]: 10.84 g
Organ Weight Lungs, Mean [4, 14]: 1.41 g
Organ Weight Ovaries/uteris, Mean [4, 14]: 1.14 g
Organ Weight, Small intestine (mean) [4, 14]: 0.65 g
Organ Weight, Spleen (mean) [4, 14]: 0.65 g
Organ Weight, Thymus (mean) [4, 14]: 0.64 g
Organ Weight Brain, Mean [4, 15]: 1.90 g
Organ Weight Heart, Mean [4, 15]: 1.11 g
Organ Weight Kidneys, Mean [4, 15]: 2.30 g
Organ Weight Liver, Mean [4, 15]: 10.42 g
Organ Weight Lungs, Mean [4, 15]: 1.45 g
Organ Weight Ovaries/uteris, Mean [4, 15]: 1.58 g
Organ Weight, Small intestine (mean) [4, 15]: 0.75 g
Organ Weight, Spleen (mean) [4, 15]: 0.60 g
Organ Weight, Thymus (mean) [4, 15]: 0.56 g
Organ Weight, Prostate (mean) [4, 16]: 0.59 g
Organ Weight, Small intestine (mean) [4, 16]: 0.66 g
Organ Weight, Spleen (mean) [4, 16]: 0.82 g
Organ Weight, Thymus (mean) [4, 16]: 0.75 g
Organ Weight, Prostate (mean) [4, 17]: 0.51 g
Organ Weight, Small intestine (mean) [4, 17]: 0.68 g
Organ Weight, Spleen (mean) [4, 17]: 0.74 g
Organ Weight, Thymus (mean) [4, 17]: 0.67 g
Effect on TNFα-induced NFκB-mediated transcription of luciferase (NFκB; HEK293 with NFκB luciferase reporter challenged with TNFα): reduce this transcription to control levels
IC50 (NFκB; Homo sapiens, 20 ng/ml TNFα, HEK293 NFκB luciferase): ~600 µg/mL (≈ 3.74 mM)
